Data from ChEMBL document CHEMBL1201862, “PubChem BioAssay data set” (2004).
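Method: 48-hour compound exposure of cells in 96-well plates, five concentrations, linear interpolation of endpoints. GI50 is the concentration that inhibits growth by half.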 Active and inactive are the calls of the source. No stated cut-off is given here; in the data, active = GI50 up to about 1.1 µM and inactive = higher.

Tests used:
Experiment in all cases: NCI-60 cell line screen, 48 h
PC-3 = system: PC-3
RXF 393 = system: RXF 393
NCI-H226 = system: NCI-H226
MDA-N = system: MDA-N
HOP-92 = system: HOP-92
UACC-62 = system: UACC-62
OVCAR-5 = system: OVCAR-5
SF-295 = system: SF-295
NCI-H23 = system: NCI-H23
NCI/ADR-RES = system: NCI/ADR-RES
SF-539 = system: SF-539
MCF7 = system: MCF7
U-251 = system: U-251
SW-620 = system: SW-620
HOP-62 = system: HOP-62
IGROV-1 = system: IGROV-1
DU-145 = system: DU-145
TK-10 = system: TK-10
CAKI-1 = system: CAKI-1
SF-268 = system: SF-268

Compound	GI50 (PC-3)	GI50 (RXF 393)	GI50 (NCI-H226)	GI50 (MDA-N)	GI50 (HOP-92)	GI50 (UACC-62)	GI50 (OVCAR-5)	GI50 (SF-295)	GI50 (NCI-H23)	GI50 (NCI/ADR-RES)	GI50 (SF-539)	GI50 (MCF7)	GI50 (U-251)	GI50 (SW-620)	GI50 (HOP-62)	GI50 (IGROV-1)	GI50 (DU-145)	GI50 (TK-10)	GI50 (CAKI-1)	GI50 (SF-268)
CC1=NN(C(=O)c2ccccc2O)C(=O)/C1=C/c1ccccc1O	1.35 µM (inactive)	0.0986 µM (active)	0.977 µM (active)	0.114 µM (active)	1.27 µM (inactive)	0.057 µM (active)	3.74 µM (inactive)	0.0736 µM (active)	0.404 µM (active)	0.558 µM (active)	0.132 µM (active)	2.68 µM (inactive)	0.114 µM (active)	1.54 µM (inactive)	0.236 µM (active)	0.0577 µM (active)	0.132 µM (active)	15.2 µM (inactive)	1.53 µM (inactive)	0.445 µM (active)
NCc1nnn(Cc2ccccc2)c1N	> 100 µM (inactive)	> 100 µM (inactive)	> 100 µM (inactive)	> 100 µM (inactive)	> 100 µM (inactive)	> 100 µM (inactive)	> 100 µM (inactive)	> 100 µM (inactive)	> 100 µM (inactive)	> 100 µM (inactive)	> 100 µM (inactive)	> 100 µM (inactive)	> 100 µM (inactive)	> 100 µM (inactive)	> 100 µM (inactive)	> 100 µM (inactive)	> 100 µM (inactive)	> 100 µM (inactive)	> 100 µM (inactive)	> 100 µM (inactive)
CC1=CC=CC(C)(C)CC1(O[Si](C)(C)C)C(F)(F)F (stereo not given)	> 100 µM (inactive)	> 100 µM (inactive)	> 100 µM (inactive)	> 100 µM (inactive)	> 100 µM (inactive)	> 100 µM (inactive)	> 100 µM (inactive)	> 100 µM (inactive)	> 100 µM (inactive)	> 100 µM (inactive)	> 100 µM (inactive)	92.7 µM (inactive)	98.9 µM (inactive)	> 100 µM (inactive)	> 100 µM (inactive)	26.6 µM (inactive)	> 100 µM (inactive)	> 100 µM (inactive)	> 100 µM (inactive)	> 100 µM (inactive)
COC(=O)c1ccccc1C1CN=NC12Cc1c(C)cc(C)cc1C2=O (stereo not given)	> 100 µM (inactive)	> 100 µM (inactive)	> 100 µM (inactive)	> 100 µM (inactive)	> 100 µM (inactive)	> 100 µM (inactive)	> 100 µM (inactive)	> 100 µM (inactive)	> 100 µM (inactive)	> 100 µM (inactive)	> 100 µM (inactive)	> 100 µM (inactive)	> 100 µM (inactive)	> 100 µM (inactive)	> 100 µM (inactive)	> 100 µM (inactive)	> 100 µM (inactive)	> 100 µM (inactive)	> 100 µM (inactive)	> 100 µM (inactive)
COc1ccc2c(CCNS(=O)(=O)c3ccccc3)c(C(C)=O)[nH]c2c1	> 71.9 µM (inactive)	> 100 µM (inactive)	> 100 µM (inactive)	> 71.3 µM (inactive)	> 100 µM (inactive)	> 58.5 µM (inactive)	> 88.9 µM (inactive)	80.4 µM (inactive)	8.3 µM (inactive)	63.2 µM (inactive)	82.4 µM (inactive)	51.4 µM (inactive)	> 74.3 µM (inactive)	> 100 µM (inactive)	> 50.6 µM (inactive)	34.4 µM (inactive)	> 80.2 µM (inactive)	> 100 µM (inactive)	1 µM (active)	52.1 µM (inactive)
CC(=O)CC1(CBr)Nc2ccc([N+](=O)[O-])cc2NC1=O (stereo not given)	60.4 µM (inactive)	32.7 µM (inactive)	> 100 µM (inactive)	> 100 µM (inactive)	59.6 µM (inactive)	> 100 µM (inactive)	> 100 µM (inactive)	> 100 µM (inactive)	> 100 µM (inactive)	> 100 µM (inactive)	44.1 µM (inactive)	40.9 µM (inactive)	> 100 µM (inactive)	28.7 µM (inactive)	83.2 µM (inactive)	> 100 µM (inactive)	42.1 µM (inactive)	82.2 µM (inactive)	> 100 µM (inactive)	> 100 µM (inactive)
O=C1c2[nH]c3ccccc3c2CCN2CCCCC12 (stereo not given)	18.8 µM (inactive)	24.9 µM (inactive)	27.8 µM (inactive)	19.1 µM (inactive)	18.5 µM (inactive)	18.8 µM (inactive)	21.6 µM (inactive)	25.1 µM (inactive)	21.8 µM (inactive)	22.8 µM (inactive)	21.1 µM (inactive)	32.1 µM (inactive)	18.8 µM (inactive)	26.1 µM (inactive)	29.3 µM (inactive)	20.2 µM (inactive)	36.4 µM (inactive)	27 µM (inactive)	38.2 µM (inactive)	33.8 µM (inactive)
O=[N+]([O-])c1ccc(Cl)c(/C=N/C23CC4CC(CC(C4)C2)C3)c1	> 10 µM (inactive)	> 10 µM (inactive)	> 10 µM (inactive)	> 8.13 µM (inactive)	> 10 µM (inactive)	> 10 µM (inactive)	> 10 µM (inactive)	> 10 µM (inactive)	> 10 µM (inactive)	> 9.1 µM (inactive)	5.33 µM (inactive)	3.08 µM (inactive)	> 7.48 µM (inactive)	> 10 µM (inactive)	> 10 µM (inactive)	> 10 µM (inactive)	> 10 µM (inactive)	> 10 µM (inactive)	> 10 µM (inactive)	> 10 µM (inactive)
O=C1CC(=O)NC(NNS(=O)(=O)c2ccccc2)=N1	> 100 µM (inactive)	> 100 µM (inactive)	> 100 µM (inactive)	> 100 µM (inactive)	> 100 µM (inactive)	> 100 µM (inactive)	> 100 µM (inactive)	> 100 µM (inactive)	> 100 µM (inactive)	> 100 µM (inactive)	> 100 µM (inactive)	> 100 µM (inactive)	> 100 µM (inactive)	> 100 µM (inactive)	> 100 µM (inactive)	> 100 µM (inactive)	> 100 µM (inactive)	> 100 µM (inactive)	> 100 µM (inactive)	> 100 µM (inactive)
O=C(O)CN(CC(=O)O)Cc1ccn(-c2cccc(-n3ccc(CN(CC(=O)O)CC(=O)O)n3)n2)n1	> 100 µM (inactive)	> 100 µM (inactive)	> 100 µM (inactive)	> 100 µM (inactive)	> 100 µM (inactive)	> 100 µM (inactive)	> 100 µM (inactive)	> 100 µM (inactive)	< 0.01 µM (active)	> 100 µM (inactive)	> 100 µM (inactive)	> 100 µM (inactive)	21.1 µM (inactive)	> 100 µM (inactive)	> 100 µM (inactive)	> 100 µM (inactive)	> 100 µM (inactive)	> 100 µM (inactive)	> 100 µM (inactive)	> 100 µM (inactive)
COc1cc2cc(C(=O)N3CC(CCl)c4c3cc(NC(=O)C(C)(C)c3ccccc3[N+](=O)[O-])c3ccccc43)[nH]c2c(OC)c1OC (stereo not given)	1.16 µM (inactive)	1.42 µM (inactive)	5.14 µM (inactive)	5.12 µM (inactive)	2.38 µM (inactive)	3.32 µM (inactive)	2.77 µM (inactive)	1.67 µM (inactive)	0.524 µM (active)	1.12 µM (active)	4.78 µM (inactive)	0.142 µM (active)	0.54 µM (active)	1.09 µM (active)	0.187 µM (active)	1.35 µM (inactive)	0.147 µM (active)	8.87 µM (inactive)	0.0687 µM (active)	1.88 µM (inactive)
CCOC(=O)/C=C\C(C#N)(C#N)/N=C/c1ccsc1	8.99 µM (inactive)	2.26 µM (inactive)	14.8 µM (inactive)	8.91 µM (inactive)	2.05 µM (inactive)	17 µM (inactive)	18.2 µM (inactive)	29.3 µM (inactive)	9.68 µM (inactive)	3.84 µM (inactive)	6.55 µM (inactive)	2.51 µM (inactive)	17.1 µM (inactive)	1.62 µM (inactive)	19.4 µM (inactive)	14.5 µM (inactive)	16.5 µM (inactive)	2.1 µM (inactive)	2.25 µM (inactive)	6.75 µM (inactive)
Cc1cnc2nc(-c3ccc(F)cc3)cc(O)c2c1	28.6 µM (inactive)	31.3 µM (inactive)	27.1 µM (inactive)	2.72 µM (inactive)	33.2 µM (inactive)	21.4 µM (inactive)	51.4 µM (inactive)	25.9 µM (inactive)	41.3 µM (inactive)	27.2 µM (inactive)	26.6 µM (inactive)	47.5 µM (inactive)	23.1 µM (inactive)	19 µM (inactive)	37.5 µM (inactive)	29.2 µM (inactive)	43 µM (inactive)	48 µM (inactive)	50.9 µM (inactive)	67.9 µM (inactive)
CSc1ccc2c(c1)c(CCN)c(C)n2Cc1ccccc1Cl	1.52 µM (inactive)	1.4 µM (inactive)	1.66 µM (inactive)	1.64 µM (inactive)	1.26 µM (inactive)	1.65 µM (inactive)	1.85 µM (inactive)	1.82 µM (inactive)	1.93 µM (inactive)	2.03 µM (inactive)	1.37 µM (inactive)	1.85 µM (inactive)	1.66 µM (inactive)	1.78 µM (inactive)	1.18 µM (inactive)	1.61 µM (inactive)	1.66 µM (inactive)	1.73 µM (inactive)	1.95 µM (inactive)	1.76 µM (inactive)
